# Measurements reported in patent US7195900B2, “Cloning and expression of D-amino acid oxidase from arthrobacter protophormiae” (Degussa AG, priority 2002, dated 2007).
# T1: partly purified D-AAO (Glutamicibacter protophormiae, UniProt Q7X2D3)
# T1 sequence (Q7X2D3 1-326): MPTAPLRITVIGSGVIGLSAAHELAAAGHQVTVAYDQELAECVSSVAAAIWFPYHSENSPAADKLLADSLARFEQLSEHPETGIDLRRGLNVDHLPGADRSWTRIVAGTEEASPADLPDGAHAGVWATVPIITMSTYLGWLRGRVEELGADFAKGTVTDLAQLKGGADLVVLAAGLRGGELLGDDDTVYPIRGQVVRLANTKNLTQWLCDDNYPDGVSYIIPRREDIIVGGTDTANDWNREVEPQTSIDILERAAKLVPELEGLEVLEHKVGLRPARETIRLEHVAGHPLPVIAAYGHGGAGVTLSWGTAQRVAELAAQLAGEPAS
# T2: D-AAO (Glutamicibacter protophormiae, UniProt Q7X2D3)
# T2 sequence (Q7X2D3 whole entry, looked up): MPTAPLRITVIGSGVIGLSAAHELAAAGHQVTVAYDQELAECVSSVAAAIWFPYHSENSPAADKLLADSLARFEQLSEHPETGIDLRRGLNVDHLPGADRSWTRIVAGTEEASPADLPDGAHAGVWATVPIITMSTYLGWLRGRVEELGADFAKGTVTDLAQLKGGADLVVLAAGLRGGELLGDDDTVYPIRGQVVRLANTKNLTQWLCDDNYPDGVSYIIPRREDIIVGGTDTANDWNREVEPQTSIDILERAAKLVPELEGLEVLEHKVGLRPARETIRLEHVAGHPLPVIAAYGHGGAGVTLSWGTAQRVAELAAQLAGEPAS
# Key:
# [1] = molecular target: T3, recombinant D-AAO (Glutamicibacter protophormiae, UniProt Q7X2D3); assay: Substrate specificity of the recombinant D-AAO (photometric peroxidase/o-dianisidine test); type: biochemical, Arthrobacter protophormiae; settings: for activity at 20000 µM: DL-amino acid, concentration increased to 20 mM; for activity at 20000 µM / activity at 10000 µM: read-out: Relative activity; for Substrate quality (in words): partial substrate spectrum, Table 2; for Stereoselectivity: conversion of L-amino acids by D-AAO: L-amino acids as substrate
# T3 construct: The restriction sites NdeI and BamHI were attached to the dao gene by PCR; made in house; host or cells: E. coli BL21(DE3)
# Experimental: (§1) To isolate D-AAO-forming microorganisms, soil samples were plated out on a nutrient medium in which coryneform bacteria can be concentrated: Na propionate 0.20 g; KNO3 0.01 g; KH2PO4 0.10 g; NaCl 0.25 g; MgSO4.7 H2O 0.10 g; CaCO3 0.02g; trace elements; vitamin solution; cycloheximide 0.05 g; if appropriate, agar 20.00 g; final pH 7.0. Microorganisms which grew on this medium were then transinoculated into a complex medium (DSM 65) with the following composition (per 1l): glucose 4.00 g; yeast extract 4.00 g; malt extract 10.00 g; agar 20 g; final pH 7.2. The strains were then multiplied in liquid medium (DSM 65), harvested by centrifugation, broken down, and the cell-free supernatant was obtained by centrifugation (=crude extract). This crude extract was then employed as an enzyme source for the photometric test for D-AAO activity. The test batch contained: 20 μl amino acid solution (100 mM); 80 μl TEA/o-dianisidine buffer; 10 μl peroxidase soln. (1,000 U/ml); 70 μl H2O; 20 μl crude extract. The measurement was carried out at 436 nm; 1 U corresponds to an amount of enzyme which converts 1 μmol of amino acid or 1 μmol of o-dianisidine per min (extinction coefficient ε for o-dianisidine=8.1 mM^−1 cm^−1).
# A partial substrate spectrum was recorded for D-AAO (Table 2).
# The stereoselectivity of the D-AAO was tested with the amino acids L-leucine, L-methionine and L-lysine. […] Thus, the D-AAO from Arthrobacter protophormiae can be described as highly stereoselective for D-amino acids.
# [2] = molecular target: T1, partly purified D-AAO; assay: biochemical; settings: read-out: Substrate excess inhibition K1
# Experimental: as §1
# [3] = molecular target: T2, D-AAO; assay: Influence of pH on D-AAO activity; type: biochemical, Arthrobacter protophormiae; settings: three substrates (lysine, phenylalanine, methionine), 10 mM; three 80 mM buffers
# Experimental: The enzyme activity was measured with three different substrates in the following 80 mM buffers: ♦ citric acid-sodium phosphate, pH 5–7; ▪ TEA/HCl, pH 7–8.5; ▴ glycine/NaOH, pH 8.5–11. Each D-amino acid tested was employed in a final concentration of 10 mM.
# The influence of pH on the activity of the D-AAO with respect to the substrates […] was investigated in three different buffers: citric acid-sodium phosphate […]; TEA/HCl pH 7.0–8.5; and glycine/NaOH pH 8.5–11). The optimum pH for all three substrates was in the weakly basic range, between pH 7.5–8.5 (FIG. 2).
# [4] = D-AAO activity assay (specific activity of enzyme preparations); type: biochemical
# Experimental: as §1
# Recombinant D-AAO was purified to homogeneity using a two-step procedure (Table 1). E. coli BL21(DE3) carrying pApdao was disrupted by ultrasonification and cell debris was removed by centrifugation. The cleared supernatant was loaded onto a Q-Sepharose FF column (h 10 cm×Ø 2.6 cm) (Amersham Bioscience), which was equilibrated with 10 mM potassium phosphate buffer pH 7.0 and run at a flow rate of 2 ml/min. The column was washed with 10 mM potassium phosphate buffer pH 7.0 containing 0.2 M NaCl and the D-AAO was eluted by increasing the salt concentration up to 0.35 M. Active fractions were pooled and loaded onto a column, which was packed with ceramic MacroPrep hydroxyapatite, type I (h 8.3 cm×Ø 1.6 cm) (Bio-Rad). The column was equilibrated with 10 mM potassium phosphate buffer pH 6.8 containing 150 mM NaCl and the flow rate was 2 ml/min. The D-AAO was detected in the flow-through.
# [5] = Isoelectric focussing of D-AAO; type: physicochemical; settings: experimentally determined, polyacrylamide gels pH 4–6
# Experimental: A molecular mass for a monomer of the D-AAO of 40 kDA was determined by means of SDS gel electrophoresis. […] The calculated molecular mass of the monomer was 34.6 kDa without and 35.4 kDa with FAD. These values indicate that the enzyme has a dimeric structure. Isoelectric focussing was performed using precast Serva polyacrylamide gels with a narrow pH range (pH 4–6). The experimentally determined pI was 4.4.
# [6] = substrate: CSCC[C@@H](N)C(=O)O; assay: purified protein, by the assay type; settings: other: partly purified D-AAO
molecule,measurement,setting,value
NC(Cc1ccc(F)cc1)C(=O)O (racemic) [4-Fluoro-DL-phenylalanine],activity at 20000 µM,[1],81%
CC(C)(C)C(N)C(=O)O (racemic) [DL-tert-Leucine],activity at 20000 µM,[1],0.12%
CNC(CC(C)C)C(=O)O (racemic) [N-Methyl-DL-leucine],activity at 20000 µM,[1],2.1%
COCC(N)C(=O)O (racemic) [O-Methyl-DL-serine],activity at 20000 µM,[1],0.33%
C[C@@H](N)C(=O)O [D-Alanine],activity at 10000 µM,[1],0.26%
N=C(N)NCCC[C@@H](N)C(=O)O [D-Arginine],Substrate quality (in words),[1],effective in converting
same,activity at 10000 µM,[1],80%
N[C@H](Cc1c[nH]cn1)C(=O)O [D-Histidine],activity at 10000 µM,[1],5.9%
CC(C)C[C@@H](N)C(=O)O [D-Leucine],activity at 10000 µM,[1],12%
NCCCC[C@@H](N)C(=O)O [D-Lysine],Substrate quality (in words),[1],best substrates
same,activity at 10000 µM,[1],99%
CSCC[C@@H](N)C(=O)O [D-Methionine],Substrate quality (in words),[1],best substrates
same,activity at 10000 µM,[1],100%
N[C@H](Cc1ccccc1)C(=O)O [D-Phenylalanine],Substrate quality (in words),[1],effective in converting
same,activity at 10000 µM,[1],54%
same,Ki,[2],55 mM
O=C(O)[C@H]1CCCN1 [D-Proline],activity at 10000 µM,[1],0.25%
CC(C)[C@@H](N)C(=O)O [D-Valine],activity at 10000 µM,[1],0.35%
CC[C@H](C)[C@@H](N)C(=O)O [D-allo-Isoleucine],activity at 10000 µM,[1],1%
CC(C)C[C@H](N)C(=O)O [L-leucine],Stereoselectivity: conversion of L-amino acids by D-AAO,[1],None of these compounds were converted
NCCCC[C@H](N)C(=O)O [L-lysine],Stereoselectivity: conversion of L-amino acids by D-AAO,[1],None of these compounds were converted
CSCC[C@H](N)C(=O)O [L-methionine],Stereoselectivity: conversion of L-amino acids by D-AAO,[1],None of these compounds were converted
partly purified D-AAO (Glutamicibacter protophormiae) (protein) MPTAPLRITVIGSGVIGLSAAHELAAAGHQVTVAYDQELAECVSSVAAAIWFPYHSENSPAADKLLADSLARFEQLSEHPETGIDLRRGLNVDHLPGADRSWTRIVAGTEEASPADLPDGAHAGVWATVPIITMSTYLGWLRGRVEELGADFAKGTVTDLAQLKGGADLVVLAAGLRGGELLGDDDTVYPIRGQVVRLANTKNLTQWLCDDNYPDGVSYIIPRREDIIVGGTDTANDWNREVEPQTSIDILERAAKLVPELEGLEVLEHKVGLRPARETIRLEHVAGHPLPVIAAYGHGGAGVTLSWGTAQRVAELAAQLAGEPAS,Optimum pH,[3],7.5–8.5 pH
same,Specific activity,"[4]; after Hydroxyapatite (second chromatography), 10 mM D-Met, pH 7.6, 30° C.",180 U/mg
same,Specific activity,"[4]; after Q-Sepharose, 10 mM D-Met, pH 7.6, 30° C.",80 U/mg
same,Specific activity,[4]; after high cell density fermentation of E. coli BL21(DE3) carrying pE1D,15 U mg^−1
same,Specific activity,"[4]; crude extract, E. coli BL21(DE3), 3 g cells, 10 mM D-Met, pH 7.6, 30° C.",30 U/mg
same,Specific activity in the crude extracts of recombinant cells,[4]; crude extracts of recombinant cells,15–30 U mg^−1
same,Specific D-AAO activity in the crude extract,"[4]; shaking flask, E. coli BL21(DE3) pE1D, 100 μM IPTG, 4 h at 30° C.",30 U/mg
same,pI,[5],4.4
same,Km,[6],900 µM
